Tests used:
[1] = target: T1, BMX (Homo sapiens, UniProt P51813); experiment: Cys-containing kinase family panel (EurofinsCerep); format: biochemical
T1 construct: EurofinsCerep (contract assay service)

[2] = target: T2, CDK2 (Homo sapiens, UniProt P24941); experiment: Eurofins Kinase Profiler panel; format: biochemical; settings: read-out: % inhibition (1μM), DMSO control=100%, lower=stronger
T2 construct: purchased Eurofins KinaseProfiler (Eurofins Pharma Discovery Services UK, Dundee); JAK3 also ChemPartner

[3] = target: T3, Lyn (Homo sapiens, UniProt P07948); experiment: Eurofins Kinase Profiler panel; format: biochemical; settings: read-out: % inhibition (1μM), DMSO control=100%, lower=stronger
T3 construct: purchased Eurofins KinaseProfiler (Eurofins Pharma Discovery Services UK, Dundee); JAK3 also ChemPartner

[4] = target: T4, Fms (Homo sapiens, UniProt P07333); experiment: Eurofins Kinase Profiler panel; format: biochemical; settings: read-out: % inhibition (1μM), DMSO control=100%, lower=stronger
T4 construct: purchased Eurofins Pharma Discovery Services UK Limited (Kinase Profiler screening platform)

[5] = target: T5, JNK2α2 (Homo sapiens, UniProt P45984); experiment: Eurofins Kinase Profiler panel; format: biochemical; settings: read-out: % inhibition (1μM), DMSO control=100%, lower=stronger
T5 construct: purchased Eurofins KinaseProfiler (Eurofins Pharma Discovery Services UK, Dundee); JAK3 also ChemPartner

[6] = target: T6, Aurora-A (Homo sapiens, UniProt O14965); experiment: Eurofins Kinase Profiler panel; format: biochemical
T6 construct: Eurofins Pharma Discovery Services UK Limited (Kinase Profiler service)

[7] = target: T7, IR (Homo sapiens, UniProt P06213); experiment: Eurofins Kinase Profiler panel; format: biochemical; settings: read-out: % inhibition (1μM), DMSO control=100%, lower=stronger
T7 construct: purchased Eurofins KinaseProfiler (Eurofins Pharma Discovery Services UK, Dundee); JAK3 also ChemPartner

[8] = test system: serum TNF-α, IL-1β and IL-6 in CIA mice; experiment: Serum cytokines of CIA mice by ELISA; format: in vivo, mouse
[9] = target: T8, MAPK1 (Homo sapiens, UniProt P27361); experiment: Eurofins Kinase Profiler panel; format: biochemical; settings: read-out: % inhibition (1μM), DMSO control=100%, lower=stronger
T8 construct: purchased Eurofins KinaseProfiler (Eurofins Pharma Discovery Services UK, Dundee); JAK3 also ChemPartner

[10] = target: T9, MKK4 (Mus musculus, UniProt P47809); experiment: Eurofins Kinase Profiler panel; format: biochemical; settings: read-out: % inhibition (1μM), DMSO control=100%, lower=stronger
T9 construct: purchased Eurofins KinaseProfiler (Eurofins Pharma Discovery Services UK, Dundee); JAK3 also ChemPartner

[11] = Pharmacokinetics in Sprague Dawley rats; format: in vivo
[12] = target: T10, Abl (Homo sapiens, UniProt P00519); experiment: Eurofins Kinase Profiler panel; format: biochemical; settings: read-out: % inhibition (1μM), DMSO control=100%, lower=stronger
T10 construct: purchased Eurofins KinaseProfiler (Eurofins Pharma Discovery Services UK, Dundee); JAK3 also ChemPartner

[13] = target: T11, GSK3β (Homo sapiens, UniProt P49841); experiment: Eurofins Kinase Profiler panel; format: biochemical; settings: read-out: % inhibition (1μM), DMSO control=100%, lower=stronger
T11 construct: purchased Eurofins KinaseProfiler (Eurofins Pharma Discovery Services UK, Dundee); JAK3 also ChemPartner

[14] = target: T12, B-Raf (Homo sapiens, UniProt P15056); experiment: Eurofins Kinase Profiler panel; format: biochemical; settings: read-out: % inhibition (1μM), DMSO control=100%, lower=stronger
T12 construct: purchased Eurofins KinaseProfiler (Eurofins Pharma Discovery Services UK, Dundee); JAK3 also ChemPartner

[15] = target: T13, MEK1 (Homo sapiens, UniProt Q02750); experiment: Eurofins Kinase Profiler panel; format: biochemical; settings: read-out: % inhibition (1μM), DMSO control=100%, lower=stronger
T13 construct: purchased Eurofins KinaseProfiler (Eurofins Pharma Discovery Services UK, Dundee); JAK3 also ChemPartner

[16] = target: T14, JAK3 (Homo sapiens, UniProt P52333); experiment: Eurofins Kinase Profiler panel; format: biochemical; settings: read-out: % inhibition (1μM), DMSO control=100%, lower=stronger, text: residual kinase activity
T14 construct: ChemPartner (contract assay service)
T14 sequence (P52333 1-1124): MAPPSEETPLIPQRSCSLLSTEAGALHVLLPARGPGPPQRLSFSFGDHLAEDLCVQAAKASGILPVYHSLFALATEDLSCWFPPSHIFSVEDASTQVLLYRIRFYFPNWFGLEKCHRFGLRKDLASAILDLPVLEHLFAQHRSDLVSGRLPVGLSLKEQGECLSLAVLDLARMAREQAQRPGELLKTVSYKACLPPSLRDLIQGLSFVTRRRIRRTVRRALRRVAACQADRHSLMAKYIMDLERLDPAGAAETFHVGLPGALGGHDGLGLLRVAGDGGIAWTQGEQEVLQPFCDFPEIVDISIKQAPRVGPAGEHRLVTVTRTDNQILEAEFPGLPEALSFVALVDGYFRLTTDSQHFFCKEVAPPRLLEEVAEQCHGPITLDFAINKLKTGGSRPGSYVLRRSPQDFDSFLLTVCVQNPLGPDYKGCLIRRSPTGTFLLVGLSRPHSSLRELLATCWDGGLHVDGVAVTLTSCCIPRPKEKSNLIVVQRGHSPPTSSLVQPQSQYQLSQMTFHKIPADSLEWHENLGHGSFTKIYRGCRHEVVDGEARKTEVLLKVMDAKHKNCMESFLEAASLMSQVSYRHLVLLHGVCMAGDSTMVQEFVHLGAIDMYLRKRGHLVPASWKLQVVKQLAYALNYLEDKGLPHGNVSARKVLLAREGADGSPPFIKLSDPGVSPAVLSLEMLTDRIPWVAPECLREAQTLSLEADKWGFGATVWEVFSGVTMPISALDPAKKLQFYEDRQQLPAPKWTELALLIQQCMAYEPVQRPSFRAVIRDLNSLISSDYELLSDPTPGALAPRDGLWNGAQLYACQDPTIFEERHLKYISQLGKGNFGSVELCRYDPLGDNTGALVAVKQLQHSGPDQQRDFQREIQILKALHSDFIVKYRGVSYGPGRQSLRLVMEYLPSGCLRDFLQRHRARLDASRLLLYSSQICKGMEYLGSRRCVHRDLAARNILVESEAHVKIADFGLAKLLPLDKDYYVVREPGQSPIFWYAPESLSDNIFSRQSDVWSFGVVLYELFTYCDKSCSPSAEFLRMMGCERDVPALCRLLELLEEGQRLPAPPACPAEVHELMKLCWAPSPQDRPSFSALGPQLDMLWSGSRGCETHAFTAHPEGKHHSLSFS

[17] = target: T15, ERBB2 (Homo sapiens, UniProt P04626); experiment: Cys-containing kinase family panel (EurofinsCerep); format: biochemical
T15 construct: EurofinsCerep (contract assay service)

[18] = test system: GM-CSF-induced JAK/STAT5 phosphorylation in TF-1 cells (JAK2); experiment: STAT5 phosphorylation induced by GM-CSF in TF-1 cells, Western blot
[19] = test system: IL-3-induced JAK/STAT5 phosphorylation in TF-1 cells (JAK2); experiment: STAT5 phosphorylation induced by IL-3 in TF-1 cells, Western blot
[20] = target: T16, GCK (Homo sapiens, UniProt Q12851); experiment: Eurofins Kinase Profiler panel; format: biochemical; settings: read-out: % inhibition (1μM), DMSO control=100%, lower=stronger
T16 construct: purchased Eurofins Pharma Discovery Services UK Limited (Kinase Profiler screening platform)

[21] = target: T17, IKKε (Homo sapiens, UniProt Q14164); experiment: Eurofins Kinase Profiler panel; format: biochemical; settings: read-out: % inhibition (1μM), DMSO control=100%, lower=stronger
T17 construct: purchased Eurofins KinaseProfiler (Eurofins Pharma Discovery Services UK, Dundee); JAK3 also ChemPartner

[22] = both sexes, Sprague Dawley, rat, iv 5.0 mg/kg, plasma
[23] = both sexes, Sprague Dawley, rat, plasma, iv 5.0 mg/kg
[24] = both sexes, Sprague Dawley, rat, plasma, po 10 mg/kg
[25] = both sexes, Sprague Dawley, rat, po 10 mg/kg, plasma

T6 sequence (O14965 whole entry): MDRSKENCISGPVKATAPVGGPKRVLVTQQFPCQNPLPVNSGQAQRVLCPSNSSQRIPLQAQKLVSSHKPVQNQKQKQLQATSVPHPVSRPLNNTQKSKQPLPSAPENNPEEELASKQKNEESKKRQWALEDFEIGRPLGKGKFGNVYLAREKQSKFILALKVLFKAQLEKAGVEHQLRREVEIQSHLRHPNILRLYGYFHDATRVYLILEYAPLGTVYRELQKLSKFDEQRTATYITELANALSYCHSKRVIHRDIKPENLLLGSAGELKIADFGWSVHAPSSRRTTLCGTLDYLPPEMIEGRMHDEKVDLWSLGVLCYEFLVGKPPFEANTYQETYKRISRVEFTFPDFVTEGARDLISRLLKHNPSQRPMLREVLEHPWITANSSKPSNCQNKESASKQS
T17 sequence (Q14164 whole entry): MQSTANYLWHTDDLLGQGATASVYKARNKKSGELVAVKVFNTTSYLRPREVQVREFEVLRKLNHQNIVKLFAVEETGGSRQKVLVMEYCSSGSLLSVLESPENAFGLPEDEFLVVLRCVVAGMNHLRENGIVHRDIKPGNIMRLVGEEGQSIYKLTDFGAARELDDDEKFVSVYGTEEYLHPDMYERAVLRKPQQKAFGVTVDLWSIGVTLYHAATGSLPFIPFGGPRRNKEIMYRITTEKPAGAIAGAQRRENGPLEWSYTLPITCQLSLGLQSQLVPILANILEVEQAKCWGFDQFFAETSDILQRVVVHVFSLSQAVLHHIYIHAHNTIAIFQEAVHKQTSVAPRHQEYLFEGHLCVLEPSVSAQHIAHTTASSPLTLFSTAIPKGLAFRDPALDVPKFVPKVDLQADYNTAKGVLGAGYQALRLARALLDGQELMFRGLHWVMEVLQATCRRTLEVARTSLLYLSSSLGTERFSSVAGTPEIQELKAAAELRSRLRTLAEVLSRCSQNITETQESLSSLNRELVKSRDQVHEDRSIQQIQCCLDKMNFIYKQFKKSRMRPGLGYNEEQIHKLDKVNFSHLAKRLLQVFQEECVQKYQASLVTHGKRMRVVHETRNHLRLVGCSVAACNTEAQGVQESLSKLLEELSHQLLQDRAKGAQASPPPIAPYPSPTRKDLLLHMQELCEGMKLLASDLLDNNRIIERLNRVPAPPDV
T13 sequence (Q02750 whole entry): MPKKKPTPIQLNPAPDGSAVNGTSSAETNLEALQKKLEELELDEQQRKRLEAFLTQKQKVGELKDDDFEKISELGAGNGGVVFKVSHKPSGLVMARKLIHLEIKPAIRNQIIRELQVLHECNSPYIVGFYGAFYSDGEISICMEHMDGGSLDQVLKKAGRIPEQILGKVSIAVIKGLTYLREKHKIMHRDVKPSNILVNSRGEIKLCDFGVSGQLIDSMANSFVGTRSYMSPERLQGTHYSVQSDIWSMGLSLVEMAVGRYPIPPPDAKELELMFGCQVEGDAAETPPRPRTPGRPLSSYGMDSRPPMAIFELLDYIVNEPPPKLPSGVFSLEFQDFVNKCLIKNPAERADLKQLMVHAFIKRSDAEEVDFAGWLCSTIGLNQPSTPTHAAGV
T7 sequence (P06213 28-1382): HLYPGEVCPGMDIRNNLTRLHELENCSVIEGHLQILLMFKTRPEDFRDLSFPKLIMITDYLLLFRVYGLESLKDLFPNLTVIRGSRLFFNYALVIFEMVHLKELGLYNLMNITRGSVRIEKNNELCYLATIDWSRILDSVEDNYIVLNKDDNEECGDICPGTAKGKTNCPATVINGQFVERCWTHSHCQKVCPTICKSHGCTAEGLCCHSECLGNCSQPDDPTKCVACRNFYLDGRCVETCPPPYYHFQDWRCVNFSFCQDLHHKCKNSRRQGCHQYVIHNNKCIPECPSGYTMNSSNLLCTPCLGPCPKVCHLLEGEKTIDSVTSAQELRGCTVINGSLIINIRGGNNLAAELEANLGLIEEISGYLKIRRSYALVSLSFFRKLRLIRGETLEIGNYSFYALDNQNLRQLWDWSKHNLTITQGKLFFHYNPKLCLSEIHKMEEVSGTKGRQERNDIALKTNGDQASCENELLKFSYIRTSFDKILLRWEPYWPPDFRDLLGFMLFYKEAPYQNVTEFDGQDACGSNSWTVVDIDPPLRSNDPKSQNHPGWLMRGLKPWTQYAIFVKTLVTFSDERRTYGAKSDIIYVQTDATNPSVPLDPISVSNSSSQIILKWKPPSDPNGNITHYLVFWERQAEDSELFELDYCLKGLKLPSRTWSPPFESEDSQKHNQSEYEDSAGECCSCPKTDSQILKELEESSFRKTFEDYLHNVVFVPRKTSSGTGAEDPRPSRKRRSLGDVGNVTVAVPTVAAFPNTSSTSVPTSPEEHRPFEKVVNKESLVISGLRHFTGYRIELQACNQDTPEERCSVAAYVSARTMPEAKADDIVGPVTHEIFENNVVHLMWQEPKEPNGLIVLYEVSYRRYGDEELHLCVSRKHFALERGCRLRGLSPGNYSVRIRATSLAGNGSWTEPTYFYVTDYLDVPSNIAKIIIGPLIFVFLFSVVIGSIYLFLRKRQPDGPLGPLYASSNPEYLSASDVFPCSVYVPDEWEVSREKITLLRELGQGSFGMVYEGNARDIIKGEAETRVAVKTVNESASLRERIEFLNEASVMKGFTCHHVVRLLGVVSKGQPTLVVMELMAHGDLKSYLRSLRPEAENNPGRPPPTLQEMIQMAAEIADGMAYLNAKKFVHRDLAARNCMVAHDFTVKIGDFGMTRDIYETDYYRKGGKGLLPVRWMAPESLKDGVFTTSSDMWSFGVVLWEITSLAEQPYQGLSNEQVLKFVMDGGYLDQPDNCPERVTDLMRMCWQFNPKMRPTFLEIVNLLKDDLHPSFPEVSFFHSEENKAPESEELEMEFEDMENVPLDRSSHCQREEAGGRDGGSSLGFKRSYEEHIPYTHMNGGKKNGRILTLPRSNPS
T11 sequence (P49841 whole entry): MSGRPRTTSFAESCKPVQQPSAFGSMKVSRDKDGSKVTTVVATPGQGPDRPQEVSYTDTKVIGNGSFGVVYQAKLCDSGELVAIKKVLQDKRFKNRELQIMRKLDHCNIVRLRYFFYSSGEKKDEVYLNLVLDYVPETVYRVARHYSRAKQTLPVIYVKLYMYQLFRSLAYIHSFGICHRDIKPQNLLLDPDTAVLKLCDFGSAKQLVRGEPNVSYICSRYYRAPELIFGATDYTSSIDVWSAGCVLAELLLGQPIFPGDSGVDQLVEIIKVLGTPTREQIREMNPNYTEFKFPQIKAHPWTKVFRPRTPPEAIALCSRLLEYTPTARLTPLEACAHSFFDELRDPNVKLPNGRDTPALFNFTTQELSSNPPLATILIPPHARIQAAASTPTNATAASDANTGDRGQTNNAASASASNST
T8 sequence (P27361 whole entry): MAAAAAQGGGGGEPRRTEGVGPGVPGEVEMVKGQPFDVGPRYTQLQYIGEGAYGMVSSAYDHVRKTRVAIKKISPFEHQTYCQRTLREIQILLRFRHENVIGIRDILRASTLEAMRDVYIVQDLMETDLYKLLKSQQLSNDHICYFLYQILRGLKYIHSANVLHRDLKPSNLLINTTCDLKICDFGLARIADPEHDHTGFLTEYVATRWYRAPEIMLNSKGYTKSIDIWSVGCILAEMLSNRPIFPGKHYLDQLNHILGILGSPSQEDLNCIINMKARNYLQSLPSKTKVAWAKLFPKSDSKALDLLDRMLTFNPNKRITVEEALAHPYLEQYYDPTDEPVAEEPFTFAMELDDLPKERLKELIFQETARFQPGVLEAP
T1 sequence (P51813 whole entry): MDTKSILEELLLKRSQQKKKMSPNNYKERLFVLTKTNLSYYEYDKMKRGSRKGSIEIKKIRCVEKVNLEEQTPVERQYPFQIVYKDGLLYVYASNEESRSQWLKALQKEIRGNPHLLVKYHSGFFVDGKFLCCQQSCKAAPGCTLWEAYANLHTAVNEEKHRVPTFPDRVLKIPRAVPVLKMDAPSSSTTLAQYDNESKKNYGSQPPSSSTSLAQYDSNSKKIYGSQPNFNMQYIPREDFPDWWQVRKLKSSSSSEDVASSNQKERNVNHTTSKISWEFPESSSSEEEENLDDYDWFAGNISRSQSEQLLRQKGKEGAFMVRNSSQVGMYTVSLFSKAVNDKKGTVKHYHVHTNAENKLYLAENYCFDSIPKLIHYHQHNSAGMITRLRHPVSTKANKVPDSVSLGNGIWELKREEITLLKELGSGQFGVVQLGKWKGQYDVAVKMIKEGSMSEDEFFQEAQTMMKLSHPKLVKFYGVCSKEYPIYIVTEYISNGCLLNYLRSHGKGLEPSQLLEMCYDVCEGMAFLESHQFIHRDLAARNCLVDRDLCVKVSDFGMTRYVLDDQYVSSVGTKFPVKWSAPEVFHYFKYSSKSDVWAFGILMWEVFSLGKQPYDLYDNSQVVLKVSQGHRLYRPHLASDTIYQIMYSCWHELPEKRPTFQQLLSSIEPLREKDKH
T5 sequence (P45984 whole entry): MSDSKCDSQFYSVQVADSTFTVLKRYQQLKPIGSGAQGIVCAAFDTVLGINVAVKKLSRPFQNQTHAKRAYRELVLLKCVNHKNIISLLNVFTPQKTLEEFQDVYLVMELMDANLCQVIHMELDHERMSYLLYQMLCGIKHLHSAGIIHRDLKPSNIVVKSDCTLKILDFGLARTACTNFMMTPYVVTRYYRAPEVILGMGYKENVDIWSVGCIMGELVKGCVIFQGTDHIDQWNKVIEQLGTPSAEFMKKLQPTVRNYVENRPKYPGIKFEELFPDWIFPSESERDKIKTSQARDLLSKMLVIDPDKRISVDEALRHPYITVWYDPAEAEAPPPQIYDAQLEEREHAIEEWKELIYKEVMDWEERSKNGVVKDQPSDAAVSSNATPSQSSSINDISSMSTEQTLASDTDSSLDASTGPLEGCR

Structure (SMILES): C=CC(=O)N[C@@H]1CCCN(c2ncnc3[nH]ccc23)C1 [RB1]
- inhibition at 1 µM [1]: 4%
- activity at 1 µM [2]: 93%
- activity at 1 µM [3]: 118%
- activity at 1 µM [4]: 90%
- activity at 1 µM [5]: 109%
- IC50 ([6]; estimated): > 0.8 µM
- activity at 1 µM ([6]; read-out: % inhibition (1μM), 1 µM, DMSO control=100%, lower=stronger): 21%
- activity at 1 µM [7]: 114%
- serum TNF-α, IL-1β and IL-6 levels [8]: significantly reduced in a dose-dependent manner
- activity at 1 µM [9]: 85%
- activity at 1 µM [10]: 114%
- AUC(0-inf) [11, 22]: 933 ng·h/mL
- AUC(0-t) [11, 22]: 802 ng·h/mL
- Cmax [11, 22]: 1090 ng/mL
- Tmax [11, 23]: 0.08 h
- clearance [11, 23]: 97.7 mL/min/kg
- half-life [11, 23]: 14.6 h
- bioavailability ([11]; both sexes, Sprague Dawley, rat, plasma, oral, 10 mg/kg, po 10 mg/kg vs iv 5.0 mg/kg, read-out: F (oral bioavailability)): 72.5%
- Tmax [11, 24]: 0.25 h
- half-life [11, 24]: 6.9 h
- AUC(0-inf) [11, 25]: 1310 ng·h/mL
- AUC(0-t) [11, 25]: 1160 ng·h/mL
- Cmax [11, 25]: 309 ng/mL
- V ([11]; iv 5.0 mg/kg): 98.04 L/kg
- CL ([11]; po 10 mg/kg): 144 mL/min/kg
- V ([11]; po 10 mg/kg): 77.33 L/kg
- F (oral bioavailability) ([11]; po 10 mg/kg vs iv 5.0 mg/kg): 72.5%
- activity at 1 µM [12]: 112%
- activity at 1 µM [13]: 114%
- activity at 1 µM [14]: 90%
- activity at 1 µM [15]: 92%
- activity at 1 µM [16]: 0.9%
- inhibition at 1 µM [17]: 2.85%
- Selectivity JAK2/JAK3 ([18]; GM-CSF, pSTAT5): > 1000
- IC50 ([18]; Homo sapiens): > 50 µM
- IC50 ([19]; Homo sapiens): > 50 µM
- Selectivity JAK2/JAK3 ([19]; IL-3, pSTAT5): > 1000
- activity at 1 µM [20]: 80%
- activity at 1 µM [21]: 97%

From PMC5869712 (Scientific Reports, 2018)
